# BindingDB's records for doi:10.1016/j.bioorg.2016.01.008 (King Abdulaziz University, 2016)
# Molecular target: Alpha-glucosidase MAL12 (Saccharomyces cerevisiae (strain ATCC 204508 / S288c), UniProt P53341)
# Experiment: In-vitro Yeast α-Glucosidase Inhibition Assay
# Description: α-Glucosidase inhibitory activity was evaluated at 37 °C, by using 0.1M phosphatebuffer (pH6.8) [28]. The enzyme(EC3.2.1.20, Saccharomyces cerevisiae purchased from sigma; catalog # G5003) (0.2 U/mL) was incubated with test compounds and phosphate buffer at 37 °C for 15 min. After 15min of incubation, 0.7 mM of substrate i.e. p-nitrophenyl-α-D-glucopyranoside (Sigma; catalog # N1377) was added and the change in absorbance was recorded at 400 nm for 30min by using spectrophotometer (SpectraMax M2, Molecular Devices, CA, USA).
# Sequence of Alpha-glucosidase MAL12 (P53341 whole entry): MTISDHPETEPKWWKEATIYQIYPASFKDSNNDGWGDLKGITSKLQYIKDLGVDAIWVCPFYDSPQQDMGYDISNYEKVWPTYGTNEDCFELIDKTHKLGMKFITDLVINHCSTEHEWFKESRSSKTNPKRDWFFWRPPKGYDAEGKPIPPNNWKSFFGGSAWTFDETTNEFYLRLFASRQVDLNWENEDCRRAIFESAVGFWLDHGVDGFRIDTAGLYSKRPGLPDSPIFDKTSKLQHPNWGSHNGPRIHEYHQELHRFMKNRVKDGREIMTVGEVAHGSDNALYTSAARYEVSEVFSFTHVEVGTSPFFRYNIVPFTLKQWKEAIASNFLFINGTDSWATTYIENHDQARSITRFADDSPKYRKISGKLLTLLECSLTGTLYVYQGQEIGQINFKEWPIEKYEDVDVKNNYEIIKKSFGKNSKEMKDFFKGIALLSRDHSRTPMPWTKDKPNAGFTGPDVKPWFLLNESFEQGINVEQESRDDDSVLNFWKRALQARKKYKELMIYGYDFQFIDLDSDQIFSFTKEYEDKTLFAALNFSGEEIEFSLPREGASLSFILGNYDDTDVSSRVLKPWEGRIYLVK
row,IC50,SMILES
1,54.2 µM,"Cc1[nH]nc2c1C(c1ccc([N+](=O)[O-])cc1)C(C#N)=C(N)O2 (stereo not given) [6-Amino-3-methyl-4-(4-nitrophenyl)-2,4-dihydropyrano[2,3-c]pyrazole-5-carbonitrile (1)]"
2,180 µM,"Cc1n[nH]c2c1C(c1ccc(Cl)cc1Cl)C(C#N)=C(N)O2 (stereo not given) [6-Amino-4-(2,4-dichlorophenyl)-3-methyl-2,4-dihydropyrano[2,3-c]pyrazole-5-carbonitrile (4)]"
3,164 µM,"Cc1[nH]nc2c1C(c1ccccc1OCc1ccccc1)C(C#N)=C(N)O2 (stereo not given) [6-Amino-4-(2-(benzyloxy)phenyl)-3-methyl-2,4-dihydropyrano[2,3-c]pyrazole-5-carbonitrile (33)]"
4,160 µM,"Cc1[nH]nc2c1C(c1ccc(O)c(OCc3ccccc3)c1)C(C#N)=C(N)O2 (stereo not given) [6-Amino-4-(3-(benzyloxy)-4-hydroxyphenyl)-3-methyl-2,4-dihydropyrano[2,3-c]pyrazole-5-carbonitrile (22)]"
5,60.8 µM,"COc1cc(C2C(C#N)=C(N)Oc3n[nH]c(C)c32)ccc1OCc1ccccc1 (stereo not given) [6-Amino-4-(4-(benzyloxy)-3-methoxyphenyl)-3-methyl-2,4-dihydropyrano[2,3-c]pyrazole-5-carbonitrile (30)]"
